Test results from patent publication US10392391B2 (Vertex Pharmaceuticals Incorporated, priority 2012, dated 2019).

The molecules below were run against ATR kinase (full-length ATR) (Homo sapiens (Human), UniProt Q13535) (assay: ATR inhibition assay (radioactive-phosphate incorporation)). Conditions: not given.
Assay type: biochemical
Procedure: Compounds were screened for their ability to inhibit ATR kinase using a radioactive-phosphate incorporation assay. Assays were carried out in a mixture of 50 mM Tris/HCl (pH 7.5), 10 mM MgCl2 and 1 mM DTT. Final substrate concentrations were 10 μM [γ-33P]ATP (3mCi 33P ATP/mmol ATP, Perkin Elmer) and 800 μM target peptide ([…]) (SEQ ID NO:1).
Assays were carried out at 25° C. in the presence of 5 nM full-length ATR. An assay stock buffer solution was prepared containing all of the reagents listed above, with the exception of ATP and the test compound of interest. 13.5 μL of the stock solution was placed in a 96 well plate followed by addition of 2 μL of DMSO stock containing serial dilutions of the test compound (typically starting from a final concentration of 15 μM with 3-fold serial dilutions) in duplicate (final DMSO concentration 7%). The plate was pre-incubated for 10 minutes at 25° C. and the reaction initiated by addition of 15 μL [γ-33P]ATP (final concentration 10 μM).
The reaction was stopped after […] by the addition of 30 μL 0.1M phosphoric acid containing 2 mM ATP. A multiscreen phosphocellulose filter 96-well plate (Millipore, Cat no. MAPHN0B50) was pretreated with 100 μL 0.2M phosphoric acid prior to the addition of […] of the stopped assay mixture. The plate was washed with 5×200 μL 0.2M phosphoric acid. After drying, 100 μL Optiphase ‘SuperMix’ liquid scintillation cocktail (Perkin Elmer) was added to the well prior to scintillation counting (1450 Microbeta Liquid Scintillation Counter, Wallac).
After removing mean background values for all of the data points, Ki(app) data were calculated from non-linear regression analysis of the initial rate data using the Prism software package (GraphPad Prism version 3.0cx for Macintosh, GraphPad Software, San Diego Calif., USA).

Sequence of ATR kinase (full-length ATR) (Q13535 whole entry): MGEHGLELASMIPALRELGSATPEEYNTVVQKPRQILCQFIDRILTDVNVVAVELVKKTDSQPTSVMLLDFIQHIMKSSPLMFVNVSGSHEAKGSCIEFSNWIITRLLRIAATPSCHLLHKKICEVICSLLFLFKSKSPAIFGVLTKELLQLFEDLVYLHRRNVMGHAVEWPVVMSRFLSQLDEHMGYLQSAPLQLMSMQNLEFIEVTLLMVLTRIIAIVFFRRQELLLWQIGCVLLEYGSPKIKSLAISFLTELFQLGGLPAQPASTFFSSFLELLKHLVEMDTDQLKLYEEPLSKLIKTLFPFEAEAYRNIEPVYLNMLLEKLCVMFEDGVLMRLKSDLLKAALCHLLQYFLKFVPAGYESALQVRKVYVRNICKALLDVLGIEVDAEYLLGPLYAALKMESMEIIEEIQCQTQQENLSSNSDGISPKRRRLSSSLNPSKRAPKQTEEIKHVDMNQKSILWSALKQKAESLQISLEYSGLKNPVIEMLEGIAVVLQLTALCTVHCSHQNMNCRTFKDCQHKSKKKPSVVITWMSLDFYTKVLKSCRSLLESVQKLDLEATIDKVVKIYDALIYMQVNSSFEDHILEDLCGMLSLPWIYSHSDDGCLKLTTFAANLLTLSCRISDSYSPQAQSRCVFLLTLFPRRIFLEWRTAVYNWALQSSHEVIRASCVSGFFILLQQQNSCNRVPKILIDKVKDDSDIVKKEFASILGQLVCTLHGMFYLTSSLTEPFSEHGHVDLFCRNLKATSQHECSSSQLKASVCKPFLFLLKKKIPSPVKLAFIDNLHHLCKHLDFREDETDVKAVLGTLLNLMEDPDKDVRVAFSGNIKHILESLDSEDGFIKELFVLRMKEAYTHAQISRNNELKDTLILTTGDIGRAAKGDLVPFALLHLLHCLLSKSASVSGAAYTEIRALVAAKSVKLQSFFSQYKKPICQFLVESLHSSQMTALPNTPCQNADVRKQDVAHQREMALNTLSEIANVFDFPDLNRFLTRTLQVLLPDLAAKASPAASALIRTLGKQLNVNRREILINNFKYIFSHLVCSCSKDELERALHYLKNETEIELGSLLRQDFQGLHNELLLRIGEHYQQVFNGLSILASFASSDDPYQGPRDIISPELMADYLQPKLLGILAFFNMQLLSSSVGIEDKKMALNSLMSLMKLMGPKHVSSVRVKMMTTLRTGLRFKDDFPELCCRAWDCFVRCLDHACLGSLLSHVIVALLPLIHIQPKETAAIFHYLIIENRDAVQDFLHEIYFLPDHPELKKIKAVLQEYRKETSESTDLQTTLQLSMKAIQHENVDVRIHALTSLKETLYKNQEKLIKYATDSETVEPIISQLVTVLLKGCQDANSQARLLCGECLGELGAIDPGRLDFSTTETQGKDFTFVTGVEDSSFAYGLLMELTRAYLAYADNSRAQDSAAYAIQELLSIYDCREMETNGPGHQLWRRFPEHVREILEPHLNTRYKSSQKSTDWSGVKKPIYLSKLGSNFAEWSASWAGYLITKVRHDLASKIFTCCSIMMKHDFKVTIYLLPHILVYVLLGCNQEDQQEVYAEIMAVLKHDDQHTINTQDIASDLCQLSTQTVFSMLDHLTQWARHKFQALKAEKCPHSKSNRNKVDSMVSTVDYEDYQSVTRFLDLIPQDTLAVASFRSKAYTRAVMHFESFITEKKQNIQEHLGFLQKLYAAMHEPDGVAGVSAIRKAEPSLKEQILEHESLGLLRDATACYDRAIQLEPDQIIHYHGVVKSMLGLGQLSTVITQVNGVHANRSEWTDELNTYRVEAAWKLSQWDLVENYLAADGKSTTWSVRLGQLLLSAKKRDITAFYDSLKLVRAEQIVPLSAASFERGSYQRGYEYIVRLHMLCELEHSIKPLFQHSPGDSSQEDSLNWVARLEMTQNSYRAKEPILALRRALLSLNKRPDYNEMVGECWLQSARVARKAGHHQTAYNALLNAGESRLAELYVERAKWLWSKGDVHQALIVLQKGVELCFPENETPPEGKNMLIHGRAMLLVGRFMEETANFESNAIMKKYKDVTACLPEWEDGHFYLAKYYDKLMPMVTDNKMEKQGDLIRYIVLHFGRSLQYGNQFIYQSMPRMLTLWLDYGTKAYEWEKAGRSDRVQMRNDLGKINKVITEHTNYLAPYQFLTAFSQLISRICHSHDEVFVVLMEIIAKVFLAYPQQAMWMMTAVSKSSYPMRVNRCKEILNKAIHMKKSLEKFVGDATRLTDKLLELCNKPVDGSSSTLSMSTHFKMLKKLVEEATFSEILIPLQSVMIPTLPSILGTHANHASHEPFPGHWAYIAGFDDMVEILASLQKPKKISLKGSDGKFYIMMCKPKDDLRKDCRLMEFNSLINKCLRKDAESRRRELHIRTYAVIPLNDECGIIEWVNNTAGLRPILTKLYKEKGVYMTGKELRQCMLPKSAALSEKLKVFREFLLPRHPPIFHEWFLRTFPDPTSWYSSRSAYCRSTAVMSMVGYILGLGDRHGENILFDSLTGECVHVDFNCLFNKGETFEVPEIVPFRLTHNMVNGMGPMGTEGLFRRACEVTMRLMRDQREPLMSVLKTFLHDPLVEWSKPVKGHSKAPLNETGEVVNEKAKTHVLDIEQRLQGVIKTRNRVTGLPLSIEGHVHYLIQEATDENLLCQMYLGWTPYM

**Q.** With `CN(C)[C@H]1CCN(c2ccncc2NC(=O)c2c(N)nn3cc(Cl)cnc23)C[C@@H]1O` [I-N-35, 2-amino-6-chloro-N-(4-((3S,4S)-4-(dimethylamino)-3-hydroxypiperidin-1-yl)pyridin-3-yl)pyrazolo[1,5-a]pyrimidine-3-carboxamide] as the molecule, how does the Ki read?
**A.** 1000 to 5000 nM

**Q.** With `Nc1nn2cc(F)cnc2c1C(=O)Nc1cnccc1N1CCN(C2COC2)C2CC21` (stereo not drawn) [I-N-112, 2-amino-6-fluoro-N-(4-(5-(oxetan-3-yl)-2,5-diazabicyclo[4.1.0]heptan-2-yl)pyridin-3-yl)pyrazolo[1,5-a]pyrimidine-3-carboxamide] as the molecule, how does the Ki read?
**A.** 1000 to 5000 nM

Same assay, conditions: Ki(app), 5 nM full-length ATR, 10 μM ATP, 25° C.

**Q.** For `N#CCc1cnc2c(C(=O)Nc3cnccc3OC3CCNCC3)c(N)nn2c1` [I-O-84, 2-amino-6-(cyanomethyl)-N-(4-(piperidin-4-yloxy)pyridin-3-yl)pyrazolo[1,5-a]pyrimidine-3-carboxamide], which Ki is on record?
**A.** < 10 nM

**Q.** How did the Ki turn out when `N#CCc1cnc2c(C(=O)Nc3cnccc3OC3COC3)c(N)nn2c1` [I-O-38, 2-amino-6-(cyanomethyl)-N-(4-(oxetan-3-yloxy)pyridin-3-yl)pyrazolo[1,5-a]pyrimidine-3-carboxamide] was run?
**A.** < 10 nM

**Q.** How did the Ki turn out when `COCCN1CCN(c2ccncc2NC(=O)c2c(N)nn3cc(F)cnc23)CC1` [I-N-22, 2-amino-6-fluoro-N-(4-(4-(2-methoxyethyl)piperazin-1-yl)pyridin-3-yl)pyrazolo[1,5-a]pyrimidine-3-carboxamide] was run?
**A.** 10 to 1000 nM

**Q.** With `Nc1nn2cc(F)cnc2c1C(=O)Nc1cnccc1N1CCN([C@H]2CCOC2)CC1` [I-N-12, (S)-2-amino-6-fluoro-N-(4-(4-(tetrahydrofuran-3-yl)piperazin-1-yl)pyridin-3-yl)pyrazolo[1,5-a]pyrimidine-3-carboxamide] as the molecule, how does the Ki read?
**A.** 10 to 1000 nM

**Q.** With `COC1CN(C(=O)C2CCN(c3ccncc3NC(=O)c3c(N)nn4cc(F)cnc34)CC2)C1` [I-G-78, 2-amino-6-fluoro-N-(4-(4-(3-methoxyazetidine-1-carbonyl)piperidin-1-yl)pyridin-3-yl)pyrazolo[1,5-a]pyrimidine-3-carboxamide] as the molecule, how does the Ki read?
**A.** 10 to 1000 nM

**Q.** Which Ki does the source give for `CN1CCC[C@H]1C(=O)N1CCN(c2ccncc2NC(=O)c2c(N)nn3cc(F)cnc23)CC1` [I-N-198, (S)-2-amino-6-fluoro-N-(4-(4-(1-methylpyrrolidine-2-carbonyl)piperazin-1-yl)pyridin-3-yl)pyrazolo[1,5-a]pyrimidine-3-carboxamide] here?
**A.** 10 to 1000 nM

**Q.** Which Ki does the source give for `Nc1nn2cc(Cl)cnc2c1C(=O)Nc1cnccc1N1CCC(N2CCC3(COC3)C2)CC1` [I-N-99, N-(4-(4-(2-oxa-6-azaspiro[3.4]octan-6-yl)piperidin-1-yl)pyridin-3-yl)-2-amino-6-chloropyrazolo[1,5-a]pyrimidine-3-carboxamide] here?
**A.** 10 to 1000 nM

**Q.** Which Ki does the source give for `Nc1nn2cc(Cl)cnc2c1C(=O)Nc1cnccc1N1CCNC(C(F)(F)F)C1` (stereo not drawn) [I-N-70, 2-amino-6-chloro-N-(4-(3-(trifluoromethyl)piperazin-1-yl)pyridin-3-yl)pyrazolo[1,5-a]pyrimidine-3-carboxamide] here?
**A.** 10 to 1000 nM

**Q.** Which Ki does the source give for `Nc1nn2cc(F)cnc2c1C(=O)Nc1cncc(Cl)c1N1CCC(C(=O)N2CCN3CCC2C3)CC1` (stereo not drawn) [I-G-69, N-(4-(4-(1,4-diazabicyclo[3.2.1]octane-4-carbonyl)piperidin-1-yl)-5-chloropyridin-3-yl)-2-amino-6-fluoropyrazolo[1,5-a]pyrimidine-3-carboxamide] here?
**A.** 10 to 1000 nM

**Q.** `CC(=O)N1CCC2(CCN(c3ccncc3NC(=O)c3c(N)nn4cc(F)cnc34)CC2)C1` [I-N-257, N-(4-(2-acetyl-2,8-diazaspiro[4.5]decan-8-yl)pyridin-3-yl)-2-amino-6-fluoropyrazolo[1,5-a]pyrimidine-3-carboxamide] was tested. Which Ki did it give?
**A.** 10 to 1000 nM

**Q.** `CN1CCC(Oc2c(F)cncc2NC(=O)c2c(N)nn3cc(F)cnc23)CC1` [I-O-89, 2-amino-6-fluoro-N-(5-fluoro-4-((1-methylpiperidin-4-yl)oxy)pyridin-3-yl)pyrazolo[1,5-a]pyrimidine-3-carboxamide] was tested. Which Ki did it give?
**A.** 10 to 1000 nM

**Q.** How did the Ki turn out when `CN1CCN(C(=O)C2CCN(c3c(F)cncc3NC(=O)c3c(N)nn4cc(Cl)cnc34)CC2)CC1` [I-G-5, 2-amino-6-chloro-N-(5-fluoro-4-(4-(4-methylpiperazine-1-carbonyl)piperidin-1-yl)pyridin-3-yl)pyrazolo[1,5-a]pyrimidine-3-carboxamide] was run?
**A.** 10 to 1000 nM

**Q.** Which Ki does the source give for `Nc1nn2cc(Cl)cnc2c1C(=O)Nc1cnccc1OC1CCCOC1` (stereo not drawn) [I-O-65, 2-amino-6-chloro-N-(4-((tetrahydro-2H-pyran-3-yl)oxy)pyridin-3-yl)pyrazolo[1,5-a]pyrimidine-3-carboxamide] here?
**A.** 10 to 1000 nM

**Q.** With `COc1ccncc1NC(=O)c1c(N)nn2cc(CC#N)cnc12` [I-O-26, 2-amino-6-(cyanomethyl)-N-(4-methoxypyridin-3-yl)pyrazolo[1,5-a]pyrimidine-3-carboxamide] as the molecule, how does the Ki read?
**A.** < 10 nM

**Q.** How did the Ki turn out when `Cc1cncc(NC(=O)c2c(N)nn3cc(F)cnc23)c1N1CCN(C2COC2)CC1` [I-N-16, 2-amino-6-fluoro-N-(5-methyl-4-(4-(oxetan-3-yl)piperazin-1-yl)pyridin-3-yl)pyrazolo[1,5-a]pyrimidine-3-carboxamide] was run?
**A.** 10 to 1000 nM

**Q.** How did the Ki turn out when `CCOC1CN(C(=O)C2CCN(c3ccncc3NC(=O)c3c(N)nn4cc(F)cnc34)CC2)C1` [I-G-91, 2-amino-N-(4-(4-(3-ethoxyazetidine-1-carbonyl)piperidin-1-yl)pyridin-3-yl)-6-fluoropyrazolo[1,5-a]pyrimidine-3-carboxamide] was run?
**A.** 10 to 1000 nM

**Q.** With `CC1(S(C)(=O)=O)CCN(c2ccncc2NC(=O)c2c(N)nn3cc(F)cnc23)CC1` [I-N-243, 2-amino-6-fluoro-N-(4-(4-methyl-4-(methylsulfonyl)piperidin-1-yl)pyridin-3-yl)pyrazolo[1,5-a]pyrimidine-3-carboxamide] as the molecule, how does the Ki read?
**A.** 10 to 1000 nM

**Q.** For `CN(C)C(=O)C1CCCN(c2ccncc2NC(=O)c2c(N)nn3cc(F)cnc23)C1` (stereo not drawn) [I-N-290, 2-amino-N-(4-(3-(dimethylcarbamoyl)piperidin-1-yl)pyridin-3-yl)-6-fluoropyrazolo[1,5-a]pyrimidine-3-carboxamide], which Ki is on record?
**A.** 10 to 1000 nM

**Q.** For `Nc1nn2cc(Cl)cnc2c1C(=O)Nc1cnccc1OC1CCNCC1` [I-O-80, 2-amino-6-chloro-N-(4-(piperidin-4-yloxy)pyridin-3-yl)pyrazolo[1,5-a]pyrimidine-3-carboxamide], which Ki is on record?
**A.** 10 to 1000 nM

**Q.** Which Ki does the source give for `CN(C)CCN(C)C(=O)C1CCN(c2c(F)cncc2NC(=O)c2c(N)nn3cc(F)cnc23)CC1` [I-G-31, 2-amino-N-(4-(4-((2-(dimethylamino)ethyl)(methyl)carbamoyl)piperidin-1-yl)-5-fluoropyridin-3-yl)-6-fluoropyrazolo[1,5-a]pyrimidine-3-carboxamide] here?
**A.** 10 to 1000 nM

**Q.** With `Nc1nn2cc(Cl)cnc2c1C(=O)Nc1cnccc1O[C@H]1C[C@]2(CCN2)C1` [I-O-78, N-(4-((4s,6r)-1-azaspiro[3.3]heptan-6-yloxy)pyridin-3-yl)-2-amino-6-chloropyrazolo[1,5-a]pyrimidine-3-carboxamide] as the molecule, how does the Ki read?
**A.** 10 to 1000 nM

**Q.** For `Nc1nn2cc(F)cnc2c1C(=O)Nc1cnccc1N1CCN2CCC1CC2` [I-N-18, N-(4-(1,4-diazabicyclo[3.2.2]nonan-4-yl)pyridin-3-yl)-2-amino-6-fluoropyrazolo[1,5-a]pyrimidine-3-carboxamide], which Ki is on record?
**A.** 10 to 1000 nM

**Q.** How did the Ki turn out when `Cn1cc(-c2ccncc2NC(=O)c2c(N)nn3cc(F)cnc23)ccc1=O` [I-C-59, 2-amino-6-fluoro-N-(1-methyl-6-oxo-1,6-dihydro-[3,4′-bipyridin]-3′-yl)pyrazolo[1,5-a]pyrimidine-3-carboxamide] was run?
**A.** 10 to 1000 nM

**Q.** `Nc1nn2cc(F)cnc2c1C(=O)Nc1cnccc1-n1cnc(C(F)(F)F)c1` [I-N-27, 2-amino-6-fluoro-N-(4-(4-(trifluoromethyl)-1H-imidazol-1-yl)pyridin-3-yl)pyrazolo[1,5-a]pyrimidine-3-carboxamide] was tested. Which Ki did it give?
**A.** 10 to 1000 nM

**Q.** `Nc1nn2cc(F)cnc2c1C(=O)Nc1cncc(F)c1N1CCC(C(=O)N2CC(N3CCCCC3)C2)CC1` [I-G-57, 2-amino-6-fluoro-N-(5-fluoro-4-(4-(3-(piperidin-1-yl)azetidine-1-carbonyl)piperidin-1-yl)pyridin-3-yl)pyrazolo[1,5-a]pyrimidine-3-carboxamide] was tested. Which Ki did it give?
**A.** 10 to 1000 nM

**Q.** How did the Ki turn out when `CN(C)C(=O)C1CN(c2ccncc2NC(=O)c2c(N)nn3cc(F)cnc23)CCO1` (stereo not drawn) [I-N-234, 4-(3-(2-amino-6-fluoropyrazolo[1,5-a]pyrimidine-3-carboxamido)pyridin-4-yl)-N,N-dimethylmorpholine-2-carboxamide] was run?
**A.** 10 to 1000 nM

**Q.** With `CN1CCN(c2c(Cl)cncc2NC(=O)c2c(N)nn3cc(Cl)cnc23)CC1` [I-N-41, 2-amino-6-chloro-N-(5-chloro-4-(4-methylpiperazin-1-yl)pyridin-3-yl)pyrazolo[1,5-a]pyrimidine-3-carboxamide] as the molecule, how does the Ki read?
**A.** 10 to 1000 nM

**Q.** Which Ki does the source give for `Nc1nn2cc(F)cnc2c1C(=O)Nc1cncc(F)c1C1=CCN(C2COC2)CC1` [I-C-12, 2-amino-6-fluoro-N-(5-fluoro-1′-(oxetan-3-yl)-1′,2′,3′,6′-tetrahydro-[4,4′-bipyridin]-3-yl)pyrazolo[1,5-a]pyrimidine-3-carboxamide] here?
**A.** 10 to 1000 nM
